A word on the EC50: it is the midpoint of the concentration-response curve. The low end stands for higher potency in that assay, the high end for lower potency in that assay.

In the assay the test system is Nrf2. Put plainly: Evaluation of Nrf2 activation ability (Nrf2d-LacZ / Keap1 HEK293 reporter, Beta-Glo luminescence). The format is cell-based, human. Particulars: rated A/B/C, Pharmacological Test Example 1. As to the method: HEK293 cells constantly expressing Nrf2d-LacZ (human Nrf2 degron region fused to LacZ; Hirotsu et al, Genes to Cell, Vol. 16, pp. 406-415 (2011)) and human Keap1 were seeded 7,000 cells/27 μl/well on 384-well plates (Corning 384 Well Flat Clear Bottom White Polystyrene TC-Treated Microplates, Cat. #3707), and cultured overnight at 5% CO2, 37° C. in DMEM medium containing 10% FBS, 100 U/mL penicillin and 100 μg/mL streptomycin. 3 μL/well of a 0.1% DMSO solution of the compound of the invention was added to the cells, which were then cultured for 3 hours at 5% CO2, 37° C. Beta-Glo® reagent (Promega, Beta-Glo Assay System, Cat. #E4740) was added 15 μL/well and incubated for 1 hour at room temperature, and luminescence intensity was measured with a luminometer. Using CDDO-Im as a standard, Nrf2 activation ability was calculated given 100% as the luminescence under stimulus with 100 nM CDDO-Im.
The compound `[O-][s+]1nc(O)cc1-n1ncc2cc(-c3ccc(Oc4ccccc4)cc3)ccc21` (stereo not drawn) [Example 74] showed an EC50 of less than 1000 nM. For `O=C(c1ccc(-c2ccc3c(cnn3-c3cc(O)n[s+]3[O-])c2)cc1)N1CCCC1` (stereo not drawn) [Example 75], the EC50 was in the range of 1000 to 5000 nM.

`Cn1cc2c(-c3ccc4c(cnn4-c4cc(O)n[s+]4[O-])c3)cccc2n1` (stereo not drawn) [Example 76] registered an EC50 of 1000 to 5000 nM.

On to `[O-][s+]1nc(O)cc1-n1ncc2cc(-c3cccc(CN4CCOCC4)c3)ccc21` (stereo not drawn) [Example 77], for which the EC50 is less than 1000 nM. `[O-][s+]1nc(O)cc1-n1ncc2ccc(-c3ccccc3)cc21` (stereo not drawn) [Example 78] returned an EC50 of 1000 to 5000 nM.

As for `[O-][s+]1nc(O)cc1-n1ncc2c(-c3ccccc3)cccc21` (stereo not drawn) [Example 79], the EC50 lay within 1000 to 5000 nM.

The compound `[O-][s+]1nc(O)cc1-n1ncc2c(-c3cncnc3)cccc21` (stereo not drawn) [Example 81] registered an EC50 of 5000 to 10000 nM. `[2H]c1cccc(-c2ccc3c(cnn3-c3cc(O)n[s+]3[O-])c2)n1` (stereo not drawn) [Example 82]: the concentration giving a half-maximal response (EC50) was less than 1000 nM.

Take `[O-][s+]1nc(O)cc1-n1ncc2cc(-c3ccccc3F)ccc21` (stereo not drawn) [Example 83]: the EC50 is less than 1000 nM. As to `[O-][s+]1nc(O)cc1-n1ncc2cc(-c3cccc(F)c3)ccc21` (stereo not drawn) [Example 84], the EC50 was less than 1000 nM. The compound `[O-][s+]1nc(O)cc1-n1ncc2cc(-c3ccc(F)cc3)ccc21` (stereo not drawn) [Example 85] gave an EC50 of less than 1000 nM. `COc1ccc(-c2ccc3c(cnn3-c3cc(O)n[s+]3[O-])c2)cn1` (stereo not drawn) [Example 86] displayed an EC50 of less than 1000 nM. `[O-][s+]1nc(O)cc1-n1ncc2cc(-c3ccc(N4CCCC4)nc3)ccc21` (stereo not drawn) [Example 87] came in with an EC50 of 1000 to 5000 nM.

On to `[2H]c1cccc(-c2ccc3c(cnn3-c3cc(O)n[s+]3[O-])c2)n1` (stereo not drawn) [Example 89], for which the EC50 was less than 1000 nM. In turn, `[O-][s+]1nc(O)cc1-n1ncc2cc(-c3ccc(N4CCCCC4)nc3)ccc21` (stereo not drawn) [Example 90] came in with an EC50 of less than 1000 nM. Turning to `[O-][s+]1nc(O)cc1-n1ncc2c(-c3cccnc3)cccc21` (stereo not drawn) [Example 92], the EC50 lay within 1000 to 5000 nM. As to `[O-][s+]1nc(O)cc1-n1ncc2c(C3=CCC(F)(F)CC3)cccc21` (stereo not drawn) [Example 93], the EC50 fell in the range of 1000 to 5000 nM. The compound `[O-][s+]1nc(O)cc1-n1ncc2c(C3=CCOCC3)cccc21` (stereo not drawn) [Example 95] registered an EC50 of 5000 to 10000 nM. `COc1cc(-c2cccc3c2cnn3-c2cc(O)n[s+]2[O-])ccn1` (stereo not drawn) [Example 97] came in with an EC50 of 1000 to 5000 nM. `[O-][s+]1nc(O)cc1-n1ncc2c(-c3ccc(C4CC4)nc3)cccc21` (stereo not drawn) [Example 98] showed an EC50 of 1000 to 5000 nM. As for `Cc1cncc(-c2cccc3c2cnn3-c2cc(O)n[s+]2[O-])c1` (stereo not drawn) [Example 100], the EC50 lay within 1000 to 5000 nM.

In the case of `Cn1cc(-c2cccc3c2cnn3-c2cc(O)n[s+]2[O-])cn1` (stereo not drawn) [Example 101], the half-maximal effective concentration (EC50) fell in the range of 1000 to 5000 nM. On to `[O-][s+]1nc(O)cc1-n1ncc2ccc(C3=CCC(F)(F)CC3)cc21` (stereo not drawn) [Example 102], for which the EC50 is 1000 to 5000 nM.

Take `[O-][s+]1nc(O)cc1-n1ncc2ccc(C3=CCOCC3)cc21` (stereo not drawn) [Example 103]: the EC50 was in the range of 1000 to 5000 nM.

`CC(C)(C)OC(=O)N1CC=C(c2ccc3cnn(-c4cc(O)n[s+]4[O-])c3c2)CC1` (stereo not drawn) [Example 104] displayed an EC50 of 1000 to 5000 nM. For the compound `[O-][s+]1nc(O)cc1-n1ncc2ccc(-c3ccc(N4CCCC4)nc3)cc21` (stereo not drawn) [Example 106], the EC50 is 1000 to 5000 nM. The value for `[O-][s+]1nc(O)cc1-n1ncc2c(-c3ccc(N4CCCC4)nc3)cccc21` (stereo not drawn) [Example 107] was 1000 to 5000 nM; that for `N#Cc1ccc(-c2ccc3c(cnn3-c3cc(O)n[s+]3[O-])c2)nc1` (stereo not drawn) [Example 108] was 1000 to 5000 nM. The value for `COc1cc(-c2ccc3cnn(-c4cc(O)n[s+]4[O-])c3c2)ccn1` (stereo not drawn) [Example 110] was 1000 to 5000 nM; that for `[O-][s+]1nc(O)cc1-n1ncc2ccc(-c3ccc(C4CC4)nc3)cc21` (stereo not drawn) [Example 111] was 1000 to 5000 nM. The compound `Cc1cncc(-c2ccc3cnn(-c4cc(O)n[s+]4[O-])c3c2)c1` (stereo not drawn) [Example 113] showed an EC50 of 5000 to 10000 nM. `[O-][s+]1nc(O)cc1-n1ncc2cc(-c3cccc(C(F)F)n3)ccc21` (stereo not drawn) [Example 116] yielded an EC50 of less than 1000 nM. As for `Cc1cccc(-c2ccc3c(cnn3-c3cc(O)n[s+]3[O-])c2)n1` (stereo not drawn) [Example 117], the EC50 was less than 1000 nM. The compound `Cc1cncc(-c2ccc3c(cnn3-c3cc(O)n[s+]3[O-])c2)n1` (stereo not drawn) [Example 118] came in with an EC50 of 1000 to 5000 nM. `[O-][s+]1nc(O)cc1-n1ncc2cc(-c3ccc(F)cn3)ccc21` (stereo not drawn) [Example 119] yielded an EC50 of 1000 to 5000 nM. `N#Cc1cccc(-c2ccc3c(cnn3-c3cc(O)n[s+]3[O-])c2)n1` (stereo not drawn) [Example 120] yielded an EC50 of 1000 to 5000 nM. The value for `[O-][s+]1nc(O)cc1-n1ncc2cc(-c3ccc(Cl)cn3)ccc21` (stereo not drawn) [Example 121] was 1000 to 5000 nM; that for `[O-][s+]1nc(O)cc1-n1ncc2cc(-c3cnc(C4CC4)cn3)ccc21` (stereo not drawn) [Example 122] was 1000 to 5000 nM.

As to `Cc1cnc(-c2ccc3c(cnn3-c3cc(O)n[s+]3[O-])c2)cn1` (stereo not drawn) [Example 123], the EC50 is less than 1000 nM. The figure for `COc1ncccc1-c1ccc2c(cnn2-c2cc(O)n[s+]2[O-])c1` (stereo not drawn) [Example 124] is less than 1000 nM; for `O=c1ccc(-c2ccc3c(cnn3-c3cc(O)n[s+]3[O-])c2)c[nH]1` (stereo not drawn) [Example 125] it is 1000 to 5000 nM; for `[O-][s+]1nc(O)cc1-n1ncc2cc(-c3ccc(N4CCOCC4)nc3)ccc21` (stereo not drawn) [Example 126] it is 1000 to 5000 nM. The figure for `COc1cccc(-c2ccc3c(cnn3-c3cc(O)n[s+]3[O-])c2)n1` (stereo not drawn) [Example 129] is less than 1000 nM; for `[O-][s+]1nc(O)cc1-n1ncc2cc(-c3cccc(C(F)(F)F)n3)ccc21` (stereo not drawn) [Example 130] it is less than 1000 nM. As for `[O-][s+]1nc(O)cc1-n1ncc2cc(-c3ccc(C(F)(F)F)cn3)ccc21` (stereo not drawn) [Example 132], the EC50 was less than 1000 nM. For the compound `[O-][s+]1nc(O)cc1-n1ncc2cc(-c3cncc(N4CCCC4)c3)ccc21` (stereo not drawn) [Example 135], the EC50 is less than 1000 nM. Compound `CN(C)c1ccc(-c2ccc3c(cnn3-c3cc(O)n[s+]3[O-])c2)cn1` (stereo not drawn) [Example 136] came in with an EC50 of less than 1000 nM. The figure for `[O-][s+]1nc(O)cc1-n1ncc2cc(-c3cccc(N4CCCC4)n3)ccc21` (stereo not drawn) [Example 138] is less than 1000 nM. `[O-][s+]1nc(O)cc1-n1ncc2cc(-c3ccc(N4CCCC4)cn3)ccc21` (stereo not drawn) [Example 139]: the EC50 is less than 1000 nM.

`[O-][s+]1nc(O)cc1-n1ncc2cc(-c3cnc(N4CCCCC4)cn3)ccc21` (stereo not drawn) [Example 140] registered an EC50 of less than 1000 nM. Turning to `[O-][s+]1nc(O)cc1-n1ncc2cc(-c3cncc(N4CCCC4)n3)ccc21` (stereo not drawn) [Example 141], the EC50 is less than 1000 nM. For `[O-][s+]1nc(O)cc1-n1ncc2cc(-c3cnc(N4CCOCC4)cn3)ccc21` (stereo not drawn) [Example 142], the EC50 is 1000 to 5000 nM.

As for `CCN1CCOc2cc(-c3ccc4c(cnn4-c4cc(O)n[s+]4[O-])c3)cnc21` (stereo not drawn) [Example 143], the 50% effective concentration (EC50) is less than 1000 nM. As to `[O-][s+]1nc(O)cc1-n1ncc2cc(OCc3cccnc3)ccc21` (stereo not drawn) [Example 144], the EC50 was in the range of 1000 to 5000 nM. As to `[O-][s+]1nc(O)cc1-n1ncc2cc(Oc3ccccc3)ccc21` (stereo not drawn) [Example 148], the EC50 is 1000 to 5000 nM. In the case of `[O-][s+]1nc(O)cc1-n1ncc2cc(-c3cnc4c(c3)OCCN4C3CC3)ccc21` (stereo not drawn) [Example 149], the EC50 is less than 1000 nM. `[O-][s+]1nc(O)cc1-n1ncc2cc(-c3cnc4c(c3)OCCN4CC3CC3)ccc21` (stereo not drawn) [Example 150] yielded an EC50 of less than 1000 nM. With `O=C(C1CC1(F)F)N1CCOc2cc(-c3ccc4c(cnn4-c4cc(O)n[s+]4[O-])c3)cnc21` (stereo not drawn) [Example 151], the EC50 is less than 1000 nM. `[O-][s+]1nc(O)cc1-n1ncc2cc(-c3cnc4c(c3)OCCN4)ccc21` (stereo not drawn) [Example 152] yielded an EC50 of 1000 to 5000 nM. `[O-][s+]1nc(O)cc1-n1ncc2cc(-c3cncc(N4CCCCC4)c3)ccc21` (stereo not drawn) [Example 153] returned a 50% effective concentration (EC50) of less than 1000 nM. Regarding `O=C(c1ccc(-c2ccc3c(cnn3-c3cc(O)n[s+]3[O-])c2)cn1)N1CCCC1` (stereo not drawn) [Example 157], the EC50 is 1000 to 5000 nM.

For the compound `CN1CCc2cc(-c3ccc4c(cnn4-c4cc(O)n[s+]4[O-])c3)cnc21` (stereo not drawn) [Example 158], the EC50 was less than 1000 nM. As to `O=C(NC1CCCCC1)N1CCC(c2ccc3c(cnn3-c3cc(O)n[s+]3[O-])c2)CC1` (stereo not drawn) [Example 159], the EC50 lay in the range of 5000 to 10000 nM. In turn, `CC(C)CN1CCOc2cc(-c3ccc4c(cnn4-c4cc(O)n[s+]4[O-])c3)cnc21` (stereo not drawn) [Example 160] had an EC50 of less than 1000 nM. The value for `[O-][s+]1nc(O)cc1-n1ncc2cc(-c3ccc(N4CCC5(COC5)C4)nc3)ccc21` (stereo not drawn) [Example 161] was less than 1000 nM. Take `[O-][s+]1nc(O)cc1-n1ncc2cc(-c3cnc4c(c3)OCCN4CC3CCC3)ccc21` (stereo not drawn) [Example 162]: the concentration giving a half-maximal response (EC50) is less than 1000 nM. The figure for `CN1C(=O)CCc2cc(-c3ccc4c(cnn4-c4cc(O)n[s+]4[O-])c3)cnc21` (stereo not drawn) [Example 164] is 5000 to 10000 nM; for `CN1CCOc2ncc(-c3ccc4c(cnn4-c4cc(O)n[s+]4[O-])c3)cc21` (stereo not drawn) [Example 165] it is 1000 to 5000 nM. In the case of `COc1cc(-c2cccnc2)c2cnn(-c3cc(O)n[s+]3[O-])c2c1` (stereo not drawn) [Example 166], the EC50 lay within 1000 to 5000 nM.

In the case of `COc1cc(-c2cncc(C)c2)c2cnn(-c3cc(O)n[s+]3[O-])c2c1` (stereo not drawn) [Example 167], the EC50 was in the range of 1000 to 5000 nM. For the compound `O=C(c1ccccc1)N1CCC(c2ccc3c(cnn3-c3cc(O)n[s+]3[O-])c2)CC1` (stereo not drawn) [Example 168], the EC50 fell in the range of 5000 to 10000 nM. The value for `CN1CCOc2cc(-c3ccc4c(c3)c(Cl)nn4-c3cc(O)n[s+]3[O-])cnc21` (stereo not drawn) [Example 169] was less than 1000 nM.

The values above are taken from patent US10201531B2, “Indazolyl-oxo-isothiazole compounds” (MOCHIDA PHARMACEUTICAL CO., LTD., priority 2015, dated 2019).
